Reference: article PMC11003488 (Journal of Enzyme Inhibition and Medicinal Chemistry, 2023)

Experiments:
Assay in all cases: NCI-60 SRB growth inhibition, one-dose and five-dose
Format in all cases: cell-based
UACC-257 = details: Homo sapiens, UACC-257, read-out: percent growth inhibition
ACHN = details: Homo sapiens, read-out: percent growth inhibition
SNB-75 = details: Homo sapiens, SNB-75, read-out: percent growth inhibition
HT29 = details: Homo sapiens, HT-29, read-out: percent growth inhibition
SF-295 = details: Homo sapiens, SF-295, read-out: percent growth inhibition
SK-OV-3 = details: Homo sapiens, SK-OV-3, read-out: percent growth inhibition
NCI-H460 = details: Homo sapiens, NCI-H460, read-out: percent growth inhibition
NCI-H322M = details: Homo sapiens, read-out: percent growth inhibition
NCI/ADR-RES = details: Homo sapiens, read-out: percent growth inhibition
786-0 = details: Homo sapiens, 786-0, read-out: percent growth inhibition
RPMI-8226 = details: Homo sapiens, RPMI-8226, read-out: percent growth inhibition
TK-10 = details: Homo sapiens, TK-10, read-out: percent growth inhibition
SN12C = details: Homo sapiens, read-out: percent growth inhibition
UACC-62 = details: Homo sapiens, UACC-62, read-out: percent growth inhibition
SW-620 = details: Homo sapiens, SW-620, read-out: percent growth inhibition
NCI-H23 = details: Homo sapiens, NCI-H23, read-out: percent growth inhibition
M14 = details: Homo sapiens, M14, read-out: percent growth inhibition

Row | SMILES | inhibition at 10 µM (UACC-257) | inhibition at 10 µM (ACHN) | inhibition at 10 µM (SNB-75) | inhibition at 10 µM (HT29) | inhibition at 10 µM (SF-295) | inhibition at 10 µM (SK-OV-3) | inhibition at 10 µM (NCI-H460) | inhibition at 10 µM (NCI-H322M) | inhibition at 10 µM (NCI/ADR-RES) | inhibition at 10 µM (786-0) | inhibition at 10 µM (RPMI-8226) | inhibition at 10 µM (TK-10) | inhibition at 10 µM (SN12C) | inhibition at 10 µM (UACC-62) | inhibition at 10 µM (SW-620) | inhibition at 10 µM (NCI-H23) | inhibition at 10 µM (M14)
1 | CC(=O)Nc1ccc(CNc2cccc(C(=O)/C=C/c3c[nH]cn3)c2)cc1 [Compound 5l, (E)-N-(4-(((3–(3-(1H-imidazol-4-yl)acryloyl)phenyl)amino)methyl)phenyl)acetamide] | 19.3% | 15.4% | 11.7% | 8.22% | -1.21% | -9.94% | 4.86% | 12.8% | -1.58% | 11.6% | 38% | 12.9% | 19.8% | 34% | 24.8% | 11.5% | 13.5%
2 | O=C(/C=C/c1c[nH]cn1)c1cccc(NCc2ccc(CO)cc2)c1 [Compound 5m, (E)-1–(3-((4-(hydroxymethyl)benzyl)amino)phenyl)-3-(1H-imidazol-4-yl)prop-2-en-1-one] | 22.5% | 16.6% |  | 24.9% | 4.92% | -2.54% | 6.83% | 13% | 6.75% | 11.7% | 63.3% | 6.96% | 19.9% | 30.5% | 23.8% | 18.6% | 15%
3 | O=C(/C=C/c1c[nH]cn1)c1cccc(NCc2ccc3oc(=O)ccc3c2)c1 [Compound 5n, (E)-6-(((3–(3-(1H-imidazol-4-yl)acryloyl)phenyl)amino)methyl)-2H-chromen-2-one] | 43.6% | 24.8% |  | 63.2% | 12.6% | -4.46% | 23.4% | 18.1% | 10.6% | 31.8% | 86.9% | 30% | 29.8% | 45.2% | 31.8% | 28.3% | 24.5%
